Data reported in publication PMC10988762, “Inhibition of malaria and babesiosis parasites by putative red blood cell targeting small molecules” (Frontiers in Cellular and Infection Microbiology, 2024).
pIC50: −log10 of the molar value. Where a name gives a salt, the structure may show the parent alone. Read-outs that look alike come from different tables or passages of the source.

Legend:
P. falciparum strain 3D7 = assay: Inhibitor susceptibility dose-response assay (SYBR-Green I), P. falciparum 3D7; format: cell-based, Plasmodium falciparum; settings: Plasmodium falciparum, read-out: IC50 (S.D.), P. falciparum-3D7
Protocol: (§1) The P. falciparum strains 3D7 and Dd2 were obtained from the Walter and Eliza Hall Institute (Melbourne, Australia) and the Malaria Research and Reference Reagent Resource, respectively. […] B. divergens parasites were maintained and assayed in mixed stages without synchronization.
(§2) Ring-stage P. falciparum (1%-parasitemia starting, 1%-hematocrit) and asynchronous B.divergens (0.5%-parasitemia starting, 3%-hematocrit) were incubated with plated compounds for 72h, and ring-stage P. knowlesi (1%-parasitemia starting, 1%-hematocrit) for 48h, before lysis and staining with dye. To quantify the species-specificity of the inhibitors, we divided the range of IC50s across the 4 test lines by the average IC50 across the same lines: inhibitors with increased scores show species-specific activity and reduced scores indicate broad-spectrum, pan-species activity.

[1] = system: BdC9 line of B. divergens; assay: Inhibitor susceptibility dose-response assay (SYBR-Green I), B. divergens; format: cell-based, Babesia divergens; settings: Babesia divergens, read-out: IC50 (S.D.), B. divergens
Protocol: as §1, §2

P. falciparum strain Dd2 = assay: Inhibitor susceptibility dose-response assay (SYBR-Green I), P. falciparum Dd2; format: cell-based, Plasmodium falciparum; settings: Plasmodium falciparum, read-out: IC50 (S.D.), P. falciparum-Dd2
Protocol: as §1, §2

uninfected RBCs = assay: Cellular phosphatidylserine exposure assay (annexin V flow cytometry);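 note: flow cytometry recording 10,000 events per condition, gated on single cells, with the two experiments using blood from separate donors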
in vitro = settings: human
P. knowlesi YH1 strain = assay: microbe, parasite or virus in culture; format: cell-based, Plasmodium knowlesi; settings: Plasmodium knowlesi, 48 h, read-out: IC50 (S.D.), P. knowlesi
Protocol: as §1, §2

P. falciparum 3D7 = assay: Co-administration with established antimalarials, IC50 shift; format: cell-based, Plasmodium falciparum; settings: P<0.05
Excerpt: Our experimental compound set is weighted toward kinase inhibitors, reflecting the high degree of small molecule development in this target space.

RBC = settings: read-out: Micromolar IC50 (RBC), PS exposure, cited from earlier work
[2] = 24h, 5x P. falciparum 3D7-IC50, % of RBCs, mean of 2 experiments
[3] = 48h, 5x P. falciparum 3D7-IC50, % of RBCs, mean of 2 experiments
[4] = 72h, 5x P. falciparum 3D7-IC50, % of RBCs, mean of 2 experiments
[5] = uninfected RBCs (red blood cells), 1% hematocrit;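 note: flow cytometry recording 10,000 events per condition, gated on single cells, with the two experiments using blood from separate donors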
[6] = 3D7, 72h, ring-stage, n=3 experiments (or 2 where indicated with *)
[7] = 72h, asynchronous, n=3 experiments (or 2 where indicated with *)
[8] = DD2, 72h, ring-stage, n=3 experiments (or 2 where indicated with *)

| SMILES | pIC50 (P. falciparum strain 3D7; 3D7, 72 h) | pIC50 ([1]; 72 h) | pIC50 (P. falciparum strain Dd2; DD2, 72 h) | Phosphatidylserine exposure (%) 24h (uninfected RBCs; [2]) [%] | Phosphatidylserine exposure (%) 48h (uninfected RBCs; [3]) [%] | Phosphatidylserine exposure (%) 72h (uninfected RBCs; [4]) [%] | hemolysis at 24 h, 5 x P. falciparum 3D7-IC50 (in vitro; [5]) [%] | hemolysis at 48 h, 5 x P. falciparum 3D7-IC50 (in vitro; [5]) [%] | hemolysis at 72 h, 5 x P. falciparum 3D7-IC50 (in vitro; [5]) [%] | pIC50 (P. knowlesi YH1 strain) | other results |
| --- | --- | --- | --- | --- | --- | --- | --- | --- | --- | --- | --- |
| COC[C@H]1Cn2cc(-c3nc(Nc4ccnn4C)ncc3C)nc2C(=O)N1Cc1ccc(F)c(F)c1 [AZD0364] | 4.80 | 4.80 | 4.89 |  |  |  |  |  |  |  |  |
| Cn1nccc1Nc1nccc(-c2cc3c(s2)C(C)(C)N(CCN2CCOCC2)C3=O)n1 [LY3214996] | 5.28 | 5.00 | 5.24 | 2 | 2 | 5 | -1 | 13 | 16 | 5.22 |  |
| Cc1ccc(NC(=O)c2ccc(CN3CCN(C)CC3)cc2)cc1Nc1nccc(-c2cccnc2)n1 [Imatinib mesylate] |  |  |  | 2 | 2 |  | -2 | 2 | 7 |  | Phosphatidylserine exposure (%) 72h (uninfected RBCs): 4% |
| CN(C)C[C@@H]1CCn2cc(c3ccccc32)C2=C(C(=O)NC2=O)c2cn(c3ccccc23)CCO1 [Ruboxistaurin] |  |  |  | 2 | 2 | 6 | -1 | 6 | 14 | 5.52 | reduction in the IC50 of chloroquine in combination with fixed, sublethal dose of test compound (P. falciparum 3D7): ≤ 2 fold; PS exposure on RBCs, in words (uninfected RBCs; 5x P. falciparum 3D7-IC50, 24, 48, 72h): similarly low levels; pIC50 (P. falciparum strain 3D7; [6]): 6.05; pIC50 [1, 7]: 5.55; pIC50 (P. falciparum strain Dd2; [8]): 6.05 |
| O=C(O)C1=CC(=C(c2ccc(O)c(C(=O)O)c2)c2ccc(O)c(C(=O)O)c2)C=CC1=O [Aurintricarboxylic acid (ATA), Aurintricarboxylic acid] | 4.43 | 4.54 | 4.36 |  |  |  |  |  |  |  |  |
| CNC(=O)c1cc(Oc2ccc(NC(=O)Nc3ccc(Cl)c(C(F)(F)F)c3)cc2)ccn1 [Sorafenib] |  |  |  |  |  |  |  |  |  | 5.30 | Phosphatidylserine exposure (%) 24h (uninfected RBCs): 7%; Phosphatidylserine exposure (%) 48h (uninfected RBCs): 12%; Phosphatidylserine exposure (%) 72h (uninfected RBCs): 21%; pIC50 (RBC; RBC assay: PS exposure ref PMID 22907570): < 5.00; pIC50 (P. falciparum strain 3D7; [6]): 5.31; pIC50 [1, 7]: 5.70; hemolysis at 24 h, 5 x P. falciparum 3D7-IC50 (in vitro): -6%; hemolysis at 48 h, 5 x P. falciparum 3D7-IC50 (in vitro): 16%; hemolysis at 72 h, 5 x P. falciparum 3D7-IC50 (in vitro): 15%; pIC50 (P. falciparum strain Dd2; [8]): 5.40 |
| CCCCCCCCc1ccc(CCC(N)(CO)CO)cc1 [FTY720] | 5.41 | 4.85 | 5.46 | 4 | 21 | 34 | 4 | 23 | 25 | 5.66 | pIC50 (RBC; RBC assay: PS exposure ref PMID 21063113): 5.00 to 5.30 |
| Clc1ccc(C(c2ccc(Cl)cc2)n2cc[n+](CC(OCc3ccc(Cl)cc3Cl)c3ccc(Cl)cc3Cl)c2)cc1 (stereo not drawn) [Calmidazolium] | 6.30 | 5.92 | 6.22 | 3 | 4 | 9 | -6 | 7 | 14 | 6.22 |  |
